Laboratory results from US12318390B2, “Pharmaceutical composition for oral administration comprising aminopyrimidine derivative or its salt” (YUHAN CORPORATION, priority 2018, dated 2025).
Values after ≈ are worked out from the molar mass of the structure shown.

How the values were obtained:
[1] = Solubility test; type: physicochemical; settings: thermodynamic from solid, 37° C.
Experimental: In addition, 100 mg of Lazertinib free-base (prepared in the same manner as the method described in WO 2016/060443) was tested under the same conditions.

[2] = Comparative pharmacokinetic test in esomeprazole-treated rats; type: in vivo, rats (SD rat); settings: for area under the blood concentration curve reduced compared with the normal rats / maximum blood concentration reduced compared with the normal rats: esomeprazole-treated rats vs normal rats
From the text: (§1) Specifically, in the normal rats and the esomeprazole-treated rats, maximum blood concentrations (Cmax) and areas under the blood concentration curve (AUClast) were compared with each other, respectively, to evaluate the absorption of drugs in animals.
The results (the maximum blood concentration and the area under the blood concentration curve) of the comparative pharmacokinetic test obtained therefrom were shown in Table 7 and FIGS. 5 and 6.

[3] = Comparative pharmacokinetic test in normal rats; type: in vivo, rats (SD rat)
From the text: as §1

[4] = Pharmacokinetic test for Lazertinib mesylate and free-base in beagle dogs; type: in vivo; settings: beagle dog
From the text: The results (the maximum blood concentration and the area under the blood concentration curve) of the comparative pharmacokinetic test obtained therefrom were shown in Table 8 and FIG. 7.

[5] = Stability test under accelerated condition; type: physicochemical; settings: for Purity: HPLC
[6] = Stability test under stressed condition; type: physicochemical; settings: for PXRD pattern: stressed condition 60 ± 2° C., 75 ± 5% RH; for Purity: HPLC
[7] = esomeprazole-treated rats, oral 30 mg/kg
[8] = Esomeprazole-treated rat (5 mg/kg i.v. for 3 days), oral 30 mg/5 mL/kg
[9] = accelerated condition, 3 months
[10] = accelerated condition, 6 months
[11] = accelerated condition, Start to 6 months
[12] = Normal rat, oral 30 mg/5 mL/kg in 0.5% methyl cellulose
[13] = oral 5 mg/2 mL/kg in 0.5% methyl cellulose
[14] = stressed condition, Start to 4 weeks

Q: What does the source list for C=CC(=O)Nc1cc(Nc2nccc(-n3cc(CN(C)C)c(-c4ccccc4)n3)n2)c(OC)cc1N1CCOCC1 [Lazertinib free-base, N-(5-(4-(4-((dimethylamino)methyl)-3-phenyl-1H-pyrazol-1-yl)pirimidine-2-ylamino)-4-methoxy-2-morpholinophenyl)acrylamide]?
A: solubility at 12 h ([1]; fassgf or other biorelevant, Artificial gastric juice (FaSSGF)): 1500 µg/mL (≈ 2700 µM); solubility at 12 h ([1]; organic solvent or mixture, Ethanol): 599 µg/mL (≈ 1080 µM); solubility at 12 h ([1]; pH 1.2 buffer solution, simulated gastric fluid, pH 1.2 buffer): 4400 µg/mL (≈ 7930 µM); solubility at 12 h ([1]; pH 2.0 buffer solution, simulated gastric fluid, pH 2.0 buffer): 3700 µg/mL (≈ 6670 µM); solubility at 12 h ([1]; pH 3.0 buffer solution, aqueous buffer, pH 3.0 buffer): 1900 µg/mL (≈ 3430 µM); solubility at 12 h ([1]; pH 4.0 buffer solution, aqueous buffer, pH 4.0 buffer): 1000 µg/mL (≈ 1800 µM); solubility at 12 h ([1]; pH 5.0 buffer solution, aqueous buffer, pH 5.0 buffer): 10 µg/mL (≈ 18 µM); solubility at 12 h ([1]; pH 6.0 buffer solution, aqueous buffer, pH 6.0 buffer): 3 µg/mL (≈ 5.41 µM); solubility at 12 h ([1]; pH 7.0 buffer solution, aqueous buffer, pH 7.0 buffer): 1 µg/mL (≈ 1.8 µM); solubility at 12 h ([1]; Artificial intestinal fluid (FaSSIF)): 27 µg/mL (≈ 48.7 µM); solubility at 12 h ([1]; water): 1 µg/mL (≈ 1.8 µM); area under the blood concentration curve reduced compared with the normal rats [2]: 63.8%; maximum blood concentration reduced compared with the normal rats [2]: 69.3%; area under the blood concentration curve lower than Lazertinib mesylate [2, 7]: 49.4%; maximum blood concentration lower than Lazertinib mesylate [2, 7]: 47.8%; AUC(0-t) ([2]; male, SD, blood, Esomeprazole-treated rat (i.v. for 3 days), oral 30 mg/5 mL/kg, read-out: Area under the blood concentration curve (AUClast)): 2640 ng·h/mL; Cmax ([2]; male, SD, blood, Esomeprazole-treated rat (i.v. for 3 days), oral 30 mg/5 mL/kg, read-out: Maximum blood concentration (Cmax)): 223 ng/mL; AUC(0-t) ([3]; male, SD, blood, 30 mg/kg, Normal rat, oral 30 mg/5 mL/kg in 0.5% methyl cellulose, read-out: Area under the blood concentration curve (AUClast)): 7290 ng·h/mL; Cmax ([3]; male, SD, blood, 30 mg/kg, Normal rat, oral 30 mg/5 mL/kg in 0.5% methyl cellulose, read-out: Maximum blood concentration (Cmax)): 726 ng/mL; area under the blood concentration curve lower than Lazertinib mesylate ([3]; normal rats, oral 30 mg/kg): 10.4%; maximum blood concentration lower than Lazertinib mesylate ([3]; normal rats, oral 30 mg/kg): 11.0%; area under the blood concentration curve lower than Lazertinib mesylate ([4]; oral 5 mg/kg): 50.4%; maximum blood concentration lower than Lazertinib mesylate ([4]; oral 5 mg/kg): 40.1%; AUC(0-t) ([4]; male, blood, 5 mg/kg, oral 5 mg/2 mL/kg in 0.5% methyl cellulose, read-out: Area under the blood concentration curve (AUClast)): 379 ng·h/mL; Cmax ([4]; male, blood, 5 mg/kg, oral 5 mg/2 mL/kg in 0.5% methyl cellulose, read-out: Maximum blood concentration (Cmax)): 80.7 ng/mL

Q: With “mesylic acid salt of N-(5-(4-(4-((dimethylamino)methyl)-3-phenyl-1H-pyrazol-1-yl)pirimidine-2-ylamino)-4-methoxy-2-morpholinophenyl)acrylamide [Lazertinib mesylate]” as the compound, how does the “Area under the blood concentration curve (AUClast)” value (shortened to “Area … (AUClast)”) [2, 8] read?
A: 5210.9 ng·h/mL

Q: What about the “Maximum blood concentration (Cmax)” value [2, 8] of the same compound?
A: 427.5 ng/mL

Q: And the “area under the blood concentration curve reduced compared with the normal rats” value [2]?
A: 36.0%

Q: What about the “maximum blood concentration reduced compared with the normal rats” value [2] of the same compound?
A: 47.6%

Q: What about the PXRD pattern ([5]; accelerated condition 40 ± 2° C., 75 ± 5% RH, 1 month) of the same compound?
A: Same

Q: And the “Appearance (color)” value ([5]; accelerated condition, 1 month)?
A: White

Q: What about the Content ([5]; accelerated condition, 1 month) of the same compound?
A: 98.9%

Q: What about the “DSC Onset” value ([5]; accelerated condition, 1 month) of the same compound?
A: 214 °C

Q: What about the “Water Content” value ([5]; accelerated condition, 1 month) of the same compound?
A: 2.73%

Q: What about the Purity ([5]; accelerated condition, 1 month) of the same compound?
A: 99.3%

Q: And the “Appearance (color)” value [5, 9]?
A: White

Q: What about the Content [5, 9] of the same compound?
A: 98.9%

Q: And the “DSC Onset” value [5, 9]?
A: 214 °C

Q: And the PXRD pattern [5, 9]?
A: Same

Q: And the “Water Content” value [5, 9]?
A: 3.19%

Q: What about the Purity [5, 9] of the same compound?
A: 99.3%

Q: What about the “Appearance (color)” value [5, 10] of the same compound?
A: White

Q: What about the Content [5, 10] of the same compound?
A: 99.1%

Q: And the “DSC Onset” value [5, 10]?
A: 214 °C

Q: And the PXRD pattern [5, 10]?
A: Same

Q: What about the “Water Content” value [5, 10] of the same compound?
A: 3.01%

Q: What about the Purity [5, 10] of the same compound?
A: 99.3%

Q: What about the “Appearance (color)” value ([5]; accelerated condition, Start) of the same compound?
A: White

Q: And the Content ([5]; accelerated condition, Start)?
A: 98.8%

Q: What about the “DSC Onset” value ([5]; accelerated condition, Start) of the same compound?
A: 214 °C

Q: What about the “Water Content” value ([5]; accelerated condition, Start) of the same compound?
A: 2.48%

Q: And the “Content Variation” value [5, 11]?
A: +0.3%

Q: And the “Purity Variation” value [5, 11]?
A: +0.1%

Q: What about the “Water Content Variation” value [5, 11] of the same compound?
A: +0.53%

Q: What about the Purity ([5]; accelerated condition, Start) of the same compound?
A: 99.2%

Q: What about the “Area … (AUClast)” value [3, 12] of the same compound?
A: 8139.0 ng·h/mL

Q: What about the “Maximum blood concentration (Cmax)” value [3, 12] of the same compound?
A: 815.6 ng/mL

Q: What about the “Area … (AUClast)” value [4, 13] of the same compound?
A: 811.5 ng·h/mL

Q: What about the “Maximum blood concentration (Cmax)” value [4, 13] of the same compound?
A: 134.7 ng/mL

Q: What about the PXRD pattern ([6]; 2 weeks) of the same compound?
A: Same

Q: And the PXRD pattern ([6]; 4 weeks)?
A: Same

Q: And the “Appearance (color)” value ([6]; stressed condition, 2 weeks)?
A: White

Q: What about the Content ([6]; stressed condition, 2 weeks) of the same compound?
A: 97.7%

Q: What about the “DSC Onset” value ([6]; stressed condition, 2 weeks) of the same compound?
A: 214 °C

Q: And the “Water Content” value ([6]; stressed condition, 2 weeks)?
A: 2.71%

Q: And the Purity ([6]; stressed condition, 2 weeks)?
A: 99.3%

Q: What about the “Appearance (color)” value ([6]; stressed condition, 4 weeks) of the same compound?
A: White

Q: What about the Content ([6]; stressed condition, 4 weeks) of the same compound?
A: 98.9%

Q: And the “DSC Onset” value ([6]; stressed condition, 4 weeks)?
A: 214 °C

Q: And the “Water Content” value ([6]; stressed condition, 4 weeks)?
A: 2.70%

Q: And the Purity ([6]; stressed condition, 4 weeks)?
A: 99.3%

Q: And the “Appearance (color)” value ([6]; stressed condition, Start)?
A: White

Q: What about the Content ([6]; stressed condition, Start) of the same compound?
A: 98.8%

Q: And the “DSC Onset” value ([6]; stressed condition, Start)?
A: 214 °C

Q: What about the “Water Content” value ([6]; stressed condition, Start) of the same compound?
A: 2.48%

Q: What about the “Content Variation” value [6, 14] of the same compound?
A: +0.1%

Q: And the “Purity Variation” value [6, 14]?
A: +0.1%

Q: What about the “Water Content Variation” value [6, 14] of the same compound?
A: +0.22%

Q: And the Purity ([6]; stressed condition, Start)?
A: 99.2%
